Data taken from the supplement of paper PMC10307832.

Legend:
Assay in all cases: relative viability (nuclei count vs DMSO), 5 days (fraction); higher = more cells survive
[1] = compound: CN[C@@H]1C[C@H]2O[C@@](C)([C@@H]1OC)n1c3ccccc3c3c4c(c5c6ccccc6n2c5c31)C(=O)NC4 [Staurosporine] + CC1(C)CCC(c2ccc(Cl)cc2)=C(CN2CCN(c3ccc(C(=O)NS(=O)(=O)c4ccc(N[C@H](CCN5CCOCC5)CSc5ccccc5)c(S(=O)(=O)C(F)(F)F)c4)cc3)CC2)C1 [Navitoclax] (partner 0.5 µM)
Method in brief: (§1)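 A single step with final 0.05% Triton X-100, 1% formaldehyde and 1 ug/ml Hoechst fixed the cells and stained nuclei 5 days after treatment. Lung cancer cell lines in 1536-well plates had been treated by pin tool the day after seeding with one drug alone or a fixed anchor-drug dose plus five library-drug doses (not always all listed) in √10 steps, and nuclei were counted on 4× images. Relative viability is the ratio of nuclei in treated wells to nuclei in vehicle wells, taken as the median of duplicate plates.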

[2] = compound: O=c1[nH]cc(F)c(=O)[nH]1 [5-Fluorouracil] + CC(=O)c1c(C)c2cnc(Nc3ccc(N4CCNCC4)cn3)nc2n(C2CCCC2)c1=O [Palbociclib] (partner 0.5 µM)
Method in brief: as §1

[3] = compound: O=c1[nH]cc(F)c(=O)[nH]1 [5-Fluorouracil] + CCNC(=O)c1noc(-c2cc(C(C)C)c(O)cc2O)c1-c1ccc(CN2CCOCC2)cc1 [Luminespib] (partner 0.01 µM)
Method in brief: as §1

[4] = compound: O=c1[nH]cc(F)c(=O)[nH]1 [5-Fluorouracil] + CS(=O)(=O)CCNCc1ccc(-c2ccc3ncnc(Nc4ccc(OCc5cccc(F)c5)c(Cl)c4)c3c2)o1 [Lapatinib] (partner 2 µM)
Method in brief: as §1

Cell Line | relative viability ([1]; first compound 0.005 µM) | relative viability ([1]; first compound 0.01581 µM) | relative viability ([1]; first compound 0.05 µM) | relative viability ([1]; first compound 0.1581 µM) | relative viability ([1]; first compound 0.5 µM) | relative viability ([2]; first compound 0.02 µM) | relative viability ([2]; first compound 0.2 µM) | relative viability ([2]; first compound 0.6325 µM) | relative viability ([2]; first compound 2 µM) | relative viability ([3]; first compound 0.02 µM) | relative viability ([3]; first compound 0.2 µM) | relative viability ([3]; first compound 0.6325 µM) | relative viability ([3]; first compound 2 µM) | relative viability ([4]; first compound 0.02 µM) | relative viability ([4]; first compound 0.2 µM) | relative viability ([4]; first compound 0.6325 µM) | relative viability ([4]; first compound 2 µM)
201T | 1.24 | 1.18 | 1.06 | 0.983 | 0.761 | 0.376 | 0.347 | 0.294 | 0.256 | 1.03 | 0.809 | 0.352 | 0.301 | 1.05 | 0.964 | 0.479 | 0.376
A549 | 0.616 | 0.385 | 0.123 | 0.0294 | 0.0297 | – | – | – | – | – | – | – | – | 1.09 | 0.656 | 0.456 | 0.135
A-427 | 0.943 | 0.639 | 0.254 | 0.204 | – | 0.529 | 0.518 | 0.49 | 0.364 | 1.01 | 0.883 | 0.682 | 0.548 | 1.02 | 1.07 | 1.07 | 0.792
ABC-1 | – | – | – | – | – | 0.749 | 0.794 | 0.883 | 0.49 | 0.577 | 0.531 | 0.533 | 0.465 | 1.33 | 1.23 | 1.24 | 1.13
BEN | 0.0665 | 0.0904 | 0.0865 | 0.0456 | 0.042 | 0.443 | 0.433 | 0.472 | 0.449 | 0.18 | 0.399 | 0.543 | 0.371 | 0.658 | 0.628 | 0.615 | 0.602
CAL-12T | 0.285 | 0.314 | 0.152 | 0.13 | 0.0943 | 0.515 | 0.419 | 0.359 | 0.251 | 0.299 | 0.34 | 0.363 | 0.3 | 0.573 | 0.897 | 0.649 | 0.559
COR-L23 | 0.511 | 0.3 | 0.17 | 0.0578 | 0.0582 | 0.288 | 0.315 | 0.206 | 0.144 | 0.86 | 0.691 | 0.512 | 0.168 | 1.03 | 0.921 | 0.48 | 0.253
COR-L 105 | 0.573 | 0.275 | 0.258 | 0.272 | 0.242 | 0.4 | 0.438 | 0.44 | 0.427 | 0.638 | 0.909 | 0.685 | 0.439 | 0.362 | 0.409 | 0.367 | 0.381
Calu-6 | 0.656 | 0.321 | 0.233 | 0.0847 | 0.0708 | – | – | – | – | – | – | – | – | 1.04 | 1.01 | 0.908 | 0.537
ChaGo-K-1 | 0.926 | – | 0.79 | 0.29 | 0.27 | 0.958 | 0.914 | 0.803 | 0.51 | 0.6 | 0.513 | 0.406 | 0.358 | – | – | – | –
EBC-1 | 0.252 | 0.129 | 0.118 | 0.11 | 0.094 | – | – | – | – | – | – | – | – | 0.189 | 0.187 | 0.178 | 0.249
EKVX | 0.306 | 0.222 | 0.254 | 0.168 | 0.112 | – | 0.276 | – | 0.175 | 0.647 | – | 0.166 | 0.152 | – | 0.184 | 0.15 | 0.147
EMC-BAC-2 | 1.1 | 0.777 | 0.172 | 0.153 | 0.127 | 0.52 | 0.532 | 0.501 | 0.518 | 1.12 | 1.23 | 1.22 | 1.16 | 0.968 | 0.975 | 0.858 | 0.907
EPLC-272H | 1.34 | 0.463 | 0.409 | 0.163 | 0.19 | 0.319 | 0.36 | 0.3 | 0.343 | 0.313 | 0.296 | 0.208 | 0.198 | 0.97 | 0.879 | 0.358 | 0.339
H3255 | 0.172 | 0.102 | 0.112 | 0.0846 | 0.0541 | 0.291 | 0.317 | 0.305 | 0.296 | 0.945 | 1 | 0.83 | 0.741 | 0.269 | 0.264 | 0.255 | 0.257
HARA | – | 0.538 | 0.37 | 0.157 | 0.161 | 0.305 | 0.261 | 0.267 | 0.286 | 0.964 | 0.739 | 0.705 | 0.509 | 0.922 | 0.892 | 0.657 | 0.568
HCC-15 | 0.677 | – | 0.392 | 0.282 | 0.183 | 0.499 | 0.744 | 0.52 | 0.302 | 0.293 | 0.294 | 0.292 | 0.225 | 0.967 | 0.898 | 0.533 | 0.314
HCC-44 | 0.867 | 0.28 | 0.215 | 0.185 | 0.13 | 0.971 | 0.929 | 0.823 | 0.619 | 1.29 | 1.22 | 0.853 | 0.355 | 1.05 | 0.974 | 0.609 | 0.311
